Converted amounts (≈) assume the structure as drawn. “And” between values parts separate entries of the source, which are not always exact repeats. Identical values can stand only once. Counter-ions that a name gives are not always drawn. Like-named read-outs stand apart in the source and are kept apart here.
Assays:
[1] = system: Mycobacterium tuberculosis H37Rv; assay: Minimum inhibitory concentration (MIC90) against Mycobacterium tuberculosis H37Rv, Middlebrook 7H9, 96-well plate, 15 days; format: cell-based; settings: Mycobacterium tuberculosis H37Rv, 15 days of incubation, 90% inhibition of growth, visual reading
[2] = Pharmacokinetics and lung tissue distribution in mice, LC-MS/MS; format: in vivo, Balb/C mice; settings: 100 mg/kg
Experimental: In this example, the pharmacokinetic parameters and lung tissue distribution of the deuterated compounds YF027, YF032, YF036, and YF044 and their respective non-deuterated control compounds (A, B, C, and D) were determined.
Balb/C mice, male (1 group at each time point, 5 mice per group, 55 mice per compound in total), 7-8 weeks old, weighing about 20 g, animal source: Beijing Vital River Laboratory Animal Technology Co., Ltd.
The test compound was completely dissolved in an 8% Tween-80 aqueous solution. A 10 mg/mL drug liquid was prepared for intraperitoneal injection and intragastric administration.
Single intragastric administration was performed at a dose of 100 mg/kg. The pharmacokinetic differences between the deuterated compounds YF027, YF032, YF036, and YF044 and their respective non-deuterated controls A, B, C, and D were compared.
The mice were fasted overnight before administration. In the experiment, orbital venous blood and lung tissue were collected from the mice at time points of no administration group (0 min) and 10 min, 20 min, 30 min, 1 h, 2 h, 3 h, 4 h, 6 h, 8 h, and 24 h after intragastric administration, and about 300 µL of blood was collected from the eyeballs each time.
The collected blood sample was placed in an anticoagulation tube, and quickly inverted and mixed well. The tube was temporarily placed on ice after being labeled. The blood samples temporarily stored on ice were subjected to low-temperature centrifugation within 1 h at 4 °C at 3000 rpm for 10 min. The supernatant obtained after centrifugation was plasma. The plasma was transferred to a new centrifuge tube and stored in a refrigerator at -80 °C for subsequent detection.
The lung tissues of the mice were collected, washed with pre-cooled normal saline to remove the residual blood and tissue fluid, dried with absorbent paper, weighed with a balance, and placed into a centrifuge tube. The tubes were marked and stored in a refrigerator at -80 °C.
The concentrations of the compounds of the present disclosure and control compounds in plasma and lung tissue were determined using LC-MS/MS. Table 2. Pharmacokinetic parameters of compound YF027 of the present disclosure and control compound A

[3] = system: Mycobacterium tuberculosis H37Rv; format: in vivo, BALB/c mice
liver microsomes = assay: Liver microsome incubation of positive control group (positive substrates); format: in vitro ADME, mouse
Experimental: This example was to detect the CYP450 metabolic enzyme phenotype of the deuterated compound YF027 and its non-deuterated control compound A (using a CYP450 enzyme metabolic phenotype research kit (recombinant enzymatic method/7 enzymes)-mouse liver microsome test).
• a. The test compound was prepared into a 40 mM stock solution for later use. 2.5 µL of the stock solution was taken and diluted with DMSO to a test compound concentration of 200 µM, and the compound at this concentration was used in subsequent tests. • b. The working solution concentration of the mixed positive substrates, phenacetin and testosterone, was 200 µM.
1) The components of the kit were thawed in an ice bath. The mixture was well mixed by vortexing and then placed on ice for later use. 2) In addition to the microsomes, the other components of the incubation systems were mixed according to the ratios and well mixed by pipetting, and the ratios of the incubation systems are shown below; Table 6. Incubation system of positive control group
3) Except for the negative control group (Table 9), 3.125 µL of liver microsomes was added to each of the above incubation systems to prepare 125 µL of reaction solution. The reaction solutions were well mixed by vortexing, and then placed in a water bath at 37 °C to initiate the reaction. A timer was set. […]

[4] = Balb/C mice, single intragastric administration, plasma
[5] = Balb/C mice, single intragastric administration, plasma, 1440 min
[6] = Mycobacterium tuberculosis, H37RV, 360 h

Compound | MIC90 [1] [µg/mL] | CL ([2]; mouse, in vivo, po) [mL/min/kg] | Cmax ([2]; mouse, in vivo, po) | Tmax ([2]; mouse, in vivo, po) [h] | MIC90 ([1]; 360 h, read-out: MIC90) [µg/mL] | AUC(0-inf) ([2]; mouse, in vivo, po) [ng·h/mL] | AUC(0-t) at 24 h ([2]; mouse, in vivo, po) [ng·h/mL] | half-life ([2]; mouse, in vivo, po) [h] | further results
3,9-Dihydroxy-8-((4-(1-hydroxybutyl-1-d)piperidin-2,2,6,6-d4-1-yl)methyl)benzo[5,6]oxepino[4,3-b]benzofuran-7(5H)-one hydrochloride [YF044] | 0.0078 | 150 | 4041.90 ng/mL | 0.50 | – | – | – | – | AUC0-∞ ([2]; mouse, in vivo, po): 111067.0 ng·h/mL; Lung tissue distribution Cmax ([2]; mouse, in vivo, po): 43437.42 ng/g; t1/2 ([2]; mouse, in vivo, po): 2.03 h; AUC0-t ([2]; mouse, in vivo, po, 24 h): 11104.68 ng·h/mL
8-((4-(3-Chlorophenyl)piperidin-1-yl-2,2,6,6-d4)methyl-d2)-3,9-dihydroxybenzo[5,6]oxepino[4,3-b]benzofuran-7(5H)-one hydrochloride [YF032] | 0.0625 | – | – | – | – | – | – | – | AUC0-∞ [2, 4]: 14032.28 ng·h/mL; CL [2, 4]: 119 mL/min/kg; Cmax [2, 4]: 4332.29 ng/mL; Tmax [2, 4]: 1.00 h; t1/2 [2, 4]: 1.85 h; AUC0-t [2, 5]: 14030.17 ng·h/mL; reduction in bacterial load ([3]; mouse, in vivo): 0.81 log
8-((4-Butanoylpiperidin-1-yl-2,2,6,6-d4)-methyl-d2)-3,9-dihydroxybenzo[5,6]oxepino[4,3-b]benzofuran-7(5H)-one hydrochloride [YF036] | 0.03125 | – | – | – | – | – | – | – | AUC0-∞ [2, 4]: 5883.88 ng·h/mL; CL [2, 4]: 283.3 mL/min/kg; Cmax [2, 4]: 2084.39 ng/mL; Tmax [2, 4]: 0.33 h; t1/2 [2, 4]: 4.75 h; AUC0-t [2, 5]: 5655.66 ng·h/mL; reduction of pulmonary bacterial load ([3]; mouse, in vivo): 1.87 log
O=C1OCc2cc(O)ccc2-c2oc3ccc(O)c(CN4CCC(c5cccc(Cl)c5)CC4)c3c21 [Compound B] | – | 161 | 3570 ng/mL and 23400 ng/g | 1 | 0.125 (≈ 0.255 µM) | 10400 | 10300 | 1.74 | bacteriostatic activity in mice ([3]; 4 weeks intragastrically, Table 11 prints 50 mg/kg, text implies twice the dose of YF032): no bacteriostatic activity
CCCC(=O)C1CCN(Cc2c(O)ccc3oc4c(c23)C(=O)OCc2cc(O)ccc2-4)CC1 [Compound C] | – | 307.2 | 944 ng/mL and 5420 ng/g | 0.5 | 0.0625 (≈ 0.139 µM) | 5430 | 4960 | 7.12 | reduction of pulmonary bacterial load ([3]; mouse, in vivo): 1.99 log
CCCC(O)C1CCN(Cc2c(O)ccc3oc4c(c23)C(=O)OCc2cc(O)ccc2-4)CC1 (centres unmarked) [Compound D] | – | 371.3 | 2110 ng/mL and 13500 ng/g | – | 0.0156 (≈ 0.0346 µM) | 4500 | 4470 | 2.86 | –
[2H]c1c(O)c(C([2H])([2H])N2CCC([2H])(C(O)C([2H])([2H])CC)CC2)c2c3c(oc2c1[2H])-c1ccc(O)cc1C([2H])([2H])OC3=O (centres unmarked) [YF047, 3,9-Dihydroxy-8-((4-(1-hydroxybutyl-2,2-d2)piperidin-1-yl-1-d)methyl-d2)benzo[5,6]oxepino[4,3-b]benzofuran-7(5H)-one-5,5,10,11-d4 hydrochloride] | – | – | – | – | – | – | – | – | MIC90 [1, 6]: 0.0156 µg/mL
[2H]c1c(O)c(C([2H])([2H])N2CCC([2H])(C([2H])(O)C([2H])([2H])CC)CC2)c2c3c(oc2c1[2H])-c1ccc(O)cc1C([2H])([2H])OC3=O (centres unmarked) [YF048, 3,9-Dihydroxy-8-((4-(1-hydroxybutyl-1,2,2-d3)piperidin-1-yl-1-d)methyl-d2)benzo[5,6]oxepino[4,3-b]benzofuran-7(5H)-one-5,5,10,11-d4 hydrochloride] | – | – | – | – | – | – | – | – | MIC90 [1, 6]: 0.0156 µg/mL
CCOc1ccc(NC(C)=O)cc1 [phenacetin] | – | – | – | – | – | – | – | – | metabolism of positive substrate (liver microsomes): almost completely metabolized
C[C@]12CC[C@H]3[C@@H](CCC4=CC(=O)CC[C@@]43C)[C@@H]1CC[C@@H]2O [testosterone] | – | – | – | – | – | – | – | – | metabolism of positive substrate (liver microsomes; liver microsomes, after 90 min of incubation, 37 °C): almost completely metabolized

Source: patent publication EP4775586A1, “DEUTERATED TETRACYCLIC DERIVATIVE AND USE THEREOF” (priority 2023, dated 2025)
